Molecules are shown by their SMILES. In brackets after ≈: the same amount, converted by molar mass. Structures can show the parent of a compound that is named as a salt. Where two headings read alike, the source gives them in different places.

This note sets out measurements from patent US9822115B2, “Nitrogen containing compounds and their use as antibacterial agents” (WOCKHARDT LIMITED, priority 2014, dated 2017).

The target in assay [1] is T1, Class A beta-lactamase, K. pneumoniae ATCC 700603 (SHV 18) (Klebsiella pneumoniae, UniProt P0AD64, E235K/G234A/R39S).
T1 construct: preincubated mixture of crude enzyme and the agents; endogenous in cells; host or cells: K. pneumoniae ATCC 700603
T1 sequence (P0AD64 22-286 R39S/G234A/E235K): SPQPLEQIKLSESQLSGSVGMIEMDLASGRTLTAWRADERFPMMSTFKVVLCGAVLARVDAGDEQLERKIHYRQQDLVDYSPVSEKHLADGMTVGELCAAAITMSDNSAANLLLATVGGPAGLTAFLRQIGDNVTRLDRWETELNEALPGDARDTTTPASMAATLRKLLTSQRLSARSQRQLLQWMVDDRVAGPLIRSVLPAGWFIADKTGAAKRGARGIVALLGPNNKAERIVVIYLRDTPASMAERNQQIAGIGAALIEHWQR
The experiment in a line: biochemical. The protocol:
(§1) Determination of enzyme inhibition activity: Concentration of the inhibitor required to inhibit 50% of enzymatic activity was measured by adding a chromogenic substrate, Nitrocefin (100 uM, 5 min) to the preincubated mixture of crude enzyme and the agents (37° C., 10 min). Absorbance was measured at 485 nm by UV-spectrophotometer. The IC50 was calculated by plotting absorbance against concentration through Sigmoidal dose response curve using Graph Pad software.
(§2) The enzyme inhibition was expressed as IC50.

Assay [2] has as its target T2, Class D beta-lactamase, A. baumannii NCTC 13301 (OXA 23) (Acinetobacter baumannii, UniProt Q9L4P2).
T2 construct: preincubated mixture of crude enzyme and the agents; endogenous in cells; host or cells: A. baumannii NCTC 13301
The experiment in a line: Beta-lactamase enzyme inhibition (nitrocefin, crude enzyme). The format is biochemical. Particulars: Class D A. baumannii NCTC 13301 (OXA 23); read-out: Beta-lactamase enzyme inhibition IC50. The protocol: as §1, §2

The test system of assay [3] is E. coli NCTC 13353 (CTX-M15, OXA-1). The experiment in a line: Antibacterial activity, MIC by agar dilution (CLSI). The format is cell-based. The conditions noted are these: Escherichia coli. The protocol:
(§3) The biological activity of representative compounds according to the invention against various bacterial strains was investigated. In a typical study, overnight grown bacterial cultures were diluted appropriately and inoculated on the agar media containing doubling dilutions of the test compounds. Observations for growth or no growth was performed after 16-20 hours of incubation at 35±2° C. in the ambient air. The overall procedure was performed as per Clinical and Laboratory Standards Institute (CLSI) recommendations, (Clinical and Laboratory Standards Institute (CLSI), Performance Standards for Antimicrobial Susceptibility Testing, 20th Informational Supplement, M07-A9, Volume 32, No. 2, 2012). Molten Mueller Hinton Agar (BD, USA) containing serial dilutions of each antibacterial agent were poured on to the plates and allowed to solidify. Appropriate suspensions from the freshly grown cultures were prepared in normal saline so that about 10^4 CFU/spot of the organism was delivered on to the drug containing agar plates using automated multipoint inoculator (Mast, UK). The plates were incubated in Biochemical oxygen demand (BOD) incubator at 37° C. for 18 hours and then examined for growth.
Table 2 details the antibacterial activity of representative compounds according to invention, against various Multi Drug Resistant (MDR) Gram-negative bacterial strains. The strains selected for study included E. coli NCTC 13353 producing CTX-M15 and OXA-1 beta-lactamase enzymes; K. pneumoniae H521 producing KPC, SHV, TEM beta-lactamase enzymes; and K. pneumoniae S48 producing NDM, SHV, TEM beta-lactamase enzymes. The activities are expressed as Minimum Inhibitory Concentrations (MICs) (mcg/ml).

The subject of assay [4] is K. pneomoniae S48 (NDM, SHV, TEM). The assay is described as above. The format is cell-based, K. pneumoniae. The conditions noted are these: Klebsiella pneumoniae. The protocol:
as §3
(§4) The strains selected for study included E. coli NCTC 13353 producing CTX-M15 and OXA-1 beta-lactamase enzymes; K. pneumoniae H521 producing KPC, SHV, TEM beta-lactamase enzymes; and K. pneumoniae S48 producing NDM, SHV, TEM beta-lactamase enzymes. The activities are expressed as Minimum Inhibitory Concentrations (MICs) (mcg/ml).

The test system of assay [5] is K. pneumoniae H521 (KPC, SHV, TEM). The description is as above. The format is cell-based. The conditions noted are these: Klebsiella pneumoniae. As for the experimental part:
as §3, §4

The mark [6] stands for this setting: NCTC13353, 18 h, Table 2, E. Coli NCTC 13353 (CTX-M15, OXA-1), read-out: MIC.
[7] abbreviates: 18 h, Table 2, K. pneomoniae S48 (NDM, SHV, TEM), read-out: MIC.
The mark [8] stands for this setting: 18 h, Table 2, K. pneumoniae H521 (KPC, SHV, TEM), read-out: MIC.

T2 sequence (Q9L4P2 18-273): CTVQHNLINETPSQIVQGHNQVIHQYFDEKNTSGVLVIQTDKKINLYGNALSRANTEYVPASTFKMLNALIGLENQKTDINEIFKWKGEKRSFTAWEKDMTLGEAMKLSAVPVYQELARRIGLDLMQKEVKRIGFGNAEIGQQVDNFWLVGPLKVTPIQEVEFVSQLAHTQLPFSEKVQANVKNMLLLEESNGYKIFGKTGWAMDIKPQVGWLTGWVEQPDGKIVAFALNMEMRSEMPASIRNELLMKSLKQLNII

`NC(=O)[C@@H]1CC[C@@H]2CN1C(=O)N2OS(=O)(=O)O` [Avibactam, avibactam, reference compound] yielded an IC50 in assay [1] of 98 nM.

For the compound `O=C(Cc1ccccc1)NNC(=O)[C@@H]1CC[C@@H]2CN1C(=O)N2OS(=O)(=O)O` [Example 4], the values for the IC50 in assay [2] and in assay [1] were 416 nM and 19 nM, respectively. Besides, the MIC in assay [3] (NCTC13353, 18 h) is 1 µg/mL (≈ 2.51 µM); in assay [4] (18 h), 2 µg/mL (≈ 5.02 µM); in assay [5] (18 h), above 32 µg/mL.

In the case of `O=C(CCc1ccccc1)NNC(=O)[C@@H]1CC[C@@H]2CN1C(=O)N2OS(=O)(=O)O` [Example 5], the half-inhibitory concentration (IC50) in assay [2] was determined as 600 nM; in assay [1] it was 9 nM. The MIC is 8 µg/mL (≈ 19.4 µM) in assay [3] (setting [6]), 8 µg/mL (≈ 19.4 µM) in assay [4] (setting [7]) and above 32 µg/mL in assay [5] (setting [8]).

With `O=C(CCCc1ccccc1)NNC(=O)[C@@H]1CC[C@@H]2CN1C(=O)N2OS(=O)(=O)O` [Example 6, sodium salt of (2S,5R)-sulfuric acid mono-[2-(N′-(4-phenyl-butanoyl)-hydrazinocarbonyl)-7-oxo-1,6-diaza-bicylo[3.2.1]oct-6-yl]ester], the IC50 in assay [2] is 207 nM. Further, the MIC in assay [3] (setting [6]) was 16 µg/mL; in assay [4] (setting [7]), 32 µg/mL; in assay [5] (setting [8]) it was above 32 µg/mL.

As for `O=C(Cc1ccccn1)NNC(=O)[C@@H]1CC[C@@H]2CN1C(=O)N2OS(=O)(=O)O` [Example 8, Sodium salt of (2S,5R)-Sulfuric acid mono-[2-(N′-(pyridine-2-yl-acetyl)-hydrazinocarbonyl)-7-oxo-1,6-diaza-bicyclo[3.2.1]oct-6-yl] ester], the values for the IC50 in assay [2] and in assay [1] were 466 nM and 25 nM, respectively. The MIC in assay [3] (NCTC13353, Table 2, E. Coli NCTC 13353 (CTX-M15, OXA-1), read-out: MIC) came out at 0.5 µg/mL; in assay [4] (Table 2, K. pneomoniae S48 (NDM, SHV, TEM), read-out: MIC) it was 0.5 µg/mL; in assay [5] (Table 2, K. pneumoniae H521 (KPC, SHV, TEM), read-out: MIC), 2 µg/mL.

With `O=C(Cc1ccc(Cl)cc1)NNC(=O)[C@@H]1CC[C@@H]2CN1C(=O)N2OS(=O)(=O)O` [Example 9, sodium salt of (2S,5R)-sulfuric acid mono-[2-(N′-(4-chlorophenyl-acetyl)-hydrazinocarbonyl)-7-oxo-1,6-diaza-bicyclo[3.2.1]oct-6-yl]ester], the IC50 in assay [2] was found to be 173 nM. The MIC is 1 µg/mL in assay [3] (NCTC13353, 18 h); 1 µg/mL in assay [4] (18 h); 4 µg/mL in assay [5] (18 h).

Consider `N#Cc1ccc(CC(=O)NNC(=O)[C@@H]2CC[C@@H]3CN2C(=O)N3OS(=O)(=O)O)cc1` [Example 10, sodium salt of (2S,5R)-sulfuric acid mono-[2-(N′-(4-cyanophenyl-acetyl)-hydrazinocarbonyl)-7-oxo-1,6-diaza-bicyclo[3.2.1]oct-6-yl]ester], for which the results for the IC50 in assay [2] and in assay [1] were 805 nM and 162 nM, respectively. In addition, the MIC in assay [3] (setting [6]) was found to be 1 µg/mL; in assay [4] (setting [7]), 1 µg/mL; in assay [5] (setting [8]) it was 4 µg/mL.

As to `CN(C)c1ccc(CC(=O)NNC(=O)[C@@H]2CC[C@@H]3CN2C(=O)N3OS(=O)(=O)O)cc1` [Example 13, sodium salt of (2S,5R)-sulfuric acid mono-[2-(N′-(4-N,N-dimethylaminophenyl-acetyl)-hydrazinocarbonyl)-7-oxo-1,6-diaza-bicyclo[3.2.1]oct-6-yl]ester], the IC50 is 629 nM in assay [2] and 62 nM in assay [1]. Also, the MIC is 8 µg/mL in assay [3] (setting [6]), 8 µg/mL in assay [4] (setting [7]) and above 32 µg/mL in assay [5] (setting [8]).

Turning to `COc1ccc(CC(=O)NNC(=O)[C@@H]2CC[C@@H]3CN2C(=O)N3OS(=O)(=O)O)cc1` [Example 14, sodium salt of (2S,5R)-sulfuric acid mono-[2-(N′-(4-methoxyphenyl-acetyl)-hydrazinocarbonyl)-7-oxo-1,6-diaza-bicyclo[3.2.1]oct-6-yl]ester], the IC50 in assay [2] came to 105 nM. Further, the values for the MIC in assay [3] (setting [6]), in assay [4] (setting [7]) and in assay [5] (setting [8]) were 1 µg/mL, 1 µg/mL and 8 µg/mL, respectively.
